Reference: US9006232B2, “Pyrimidone derivatives” (Mitsubishi Tanabe Pharma Corporation, priority 2009, dated 2015)
Where a name gives a salt, the structure may show the parent alone.

These compounds were tested against bovine cerebral TPK1 (Bos taurus, UniProt A0A059UE90) (assay: Inhibitory activity against P-GS1 phosphorylation by bovine cerebral TPK1). Settings: P-GS1 phosphorylation, 41.7 μM [γ-32P] ATP, 25° C., 2 hours; read-out: IC50.
Type: biochemical
Description: Inhibitory Activity of the Medicament of the Present Invention Against P-GS1 Phosphorylation by Bovine Cerebral TPK1 […] The phosphorylation was started by adding ATP, and the reaction was conducted at 25° C. for 2 hours, and then stopped by adding 21% perchloric acid on ice cooling. The reaction mixture was centrifuged at 12,000 rpm for 5 minutes and adsorbed on P81 paper (Whatmann), and then the paper was washed four times with 75 mM phosphoric acid, three times with water and once with acetone. The paper was dried, and the residual radioactivity was measured using a liquid scintillation counter.

bovine cerebral TPK1, sequence (A0A059UE90 1-419): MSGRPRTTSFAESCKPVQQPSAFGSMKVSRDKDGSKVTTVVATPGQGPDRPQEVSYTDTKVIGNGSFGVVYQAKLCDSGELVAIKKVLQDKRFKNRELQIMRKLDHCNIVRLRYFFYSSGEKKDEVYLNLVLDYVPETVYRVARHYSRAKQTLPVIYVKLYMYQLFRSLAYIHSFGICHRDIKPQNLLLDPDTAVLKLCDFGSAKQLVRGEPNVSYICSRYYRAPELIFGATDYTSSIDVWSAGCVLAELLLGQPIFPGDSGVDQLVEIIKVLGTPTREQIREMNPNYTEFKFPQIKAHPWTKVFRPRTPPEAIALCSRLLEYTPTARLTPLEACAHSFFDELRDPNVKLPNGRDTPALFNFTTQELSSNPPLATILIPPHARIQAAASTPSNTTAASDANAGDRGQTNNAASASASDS

Row | Structure (SMILES) | IC50
1 | Cn1c(OC[C@@H]2CCN(c3ccsc3)C2)nc(-c2ccncc2F)cc1=O [Compound No. 2.208, 6-(3-Fluoro-pyridin-4-yl)-3-methyl-2-[(3R)-1-(thiophen-3-yl)pyrrolidin-3-ylmethoxy]-3H-pyrimidin-4-one] | 108 nM
2 | CCCCCCc1ccc(Oc2nc(-c3ccncn3)cc(=O)n2C)cc1 [Compound No. 2.001, 2-(4-Hexylphenoxy)-1-methyl-1H[4,4′]bipyrimidinyl-6one] | 429 nM
3 | CN1CCN(Cc2ccc([C@H]3CC[C@@H](Oc4nc(-c5ccncn5)cc(=O)n4C)CC3)cc2)CC1 [Compound No. 1.904, 1-Methyl-2-{cis-4-[4-(4-methyl-piperazin-1-ylmethyl)phenyl]cyclohexyloxy}-1H-[4,4′] bipyrimidinyl-6-one] | 30.3 nM
4 | CN(C)Cc1ccc(CCOc2nc(-c3ccncc3)cc(=O)n2C)cc1 [Compound No. 2.402, 2-[2-(4-Dimethylaminomethyl-phenyl)ethoxy]-3-methyl-6-pyridin-4-yl-3H-pyrimidin-4-one dihydrochloride] | 150 nM
5 | Cn1c(OC2CCN(CCC3CCN(Cc4ccccc4)CC3)CC2)nc(-c2ccncn2)cc1=O [Compound No. 1.502, 2-{1-[2-(1-Benzyl-piperidin-4-yl)ethyl]piperidin-4-yloxy}-1-methyl-1H-[4,4′]bipyrimidinyl-6-one] | 33.9 nM
6 | Cn1c(O[C@H]2CC[C@@H](c3ccc(CO)cc3)CC2)nc(-c2ccncn2)cc1=O [Compound No. 1.902, 2-[cis-4-(4-Hydroxymethyl-phenyl)cyclohexyloxy]-1-methyl-1H-[4,4′]bipyrimidinyl-6-one] | 124 nM
7 | CC1CCCCC1Oc1nc(-c2ccncn2)cc(=O)n1C (centres unmarked) [Compound No. 1.801, 1-Methyl-2-(2-methyl-cyclohexyloxy)-1H-[4,4′] bipyrimidinyl-6-one] | 58.1 nM
8 | Cn1c(OC2CCN(c3ccc(CN4CCN(C(=O)OC(C)(C)C)CC4)cc3)CC2)nc(-c2ccncn2)cc1=O [Compound No. 1.201, tert-Butyl 4-{4-[4-(1-methyl-6-oxo-1,6-dihydro-[4,4′]bipyrimidinyl-2-yloxy)piperidin-1-yl]benzyl}piperazine-1-carboxylate] | 19.1 nM
9 | Cn1c(OC2CCN(c3ccc4c(c3)COC(=O)N4)CC2)nc(-c2ccncn2)cc1=O [Compound No. 1.401, 1-Methyl-2-{[1-(2-oxo-1,4-dhydro-2H-3,1-benzoxazin-6-yl)piperidin-4-yl]oxy}-1H-[4,4′] bipyrimidinyl-6-one] | 43.7 nM
10 | Cn1c(OC2CCN(CCC3CCNCC3)CC2)nc(-c2ccncn2)cc1=O [Compound No. 1.501, 1-Methyl-2-[1-(2-piperidin-4-yl-ethyl)piperidin-4-yloxy]-1H-[4,4′] bipyrimidinyl-6-one] | 69 nM
11 | Cn1c(OC2CCN(c3ccc(CN4CCNCC4)cc3)CC2)nc(-c2ccncn2)cc1=O [Compound No. 1.202, 1-Methyl-2-[1-(4-piperazin-1-ylmethyl-phenyl)piperidin-4-yloxy]-1H-[4,4′]bipyrimidinyl-6-one] | 13 nM
12 | Cn1c(OC[C@@H]2CCN(c3ccccc3)C2)nc(-c2ccncc2F)cc1=O [Compound No. 2.211, 6-(3-Fluoro-pyridin-4-yl)-3-methyl-2-[(3R)-1-phenyl-pyrrolidin-3-ylmethoxy]-3H-pyrimidin-4-one] | 658 nM
13 | Cn1c(OC[C@H]2CCN(c3ccsc3)C2)nc(-c2ccncn2)cc1=O [Compound No. 2.207, 1-Methyl-2-[(3S)-1-(thiophen-3-yl)pyrrolidin-3-ylmethoxy]-1H-[4,4]′bipyrimidinyl-6-one] | 307 nM
14 | Cn1c(OC2CCCN(c3ccc(C#N)cc3)CC2)nc(-c2ccncn2)cc1=O (centres unmarked) [Compound No. 1.701, 4-[4-(1-Methyl-6-oxo-1,6-dihydro-[4,4′]bipyrimidinyl-2-yloxy)azepan-1-yl]benzonitrile] | 30.3 nM

Continued, values first:

Row | IC50 | Structure (SMILES)
15 | 29.8 nM | Cn1c(OC2CCN(c3cccnc3)CC2)nc(-c2ccncn2)cc1=O [1.224, 1-Methyl-2-(1-pyridin-3-yl-piperidin-4-yloxy)-1H-[4,4′]bipyrimidinyl-6-one]
16 | 200 nM | Cn1c(OCCc2ccccc2)nc(-c2ccncc2)cc1=O [2.002, 3-Methyl-2-phenethyloxy-6-pyridin-4-yl-3H-pyrimidin-4-one]
17 | 941 nM | Cn1c(OC[C@H]2CCN(c3ccccc3)C2)nc(-c2ccncn2)cc1=O [2.209, 1-Methyl-2-[(3S)-1-phenyl-pyrrolidin-3-ylmethoxy]-1H-[4,4′] bipyrimidinyl-6-one]
18 | 100 nM | Cn1c(OC2CCCC2)nc(-c2ccncn2)cc1=O [1.804, 2-Cyclopentyloxy-1-methyl-1H-[4,4′]bipyrimidinyl-6-one]
19 | 64.9 nM | CC(=O)N1CCN(Cc2ccc(N3CCC(Oc4nc(-c5ccncn5)cc(=O)n4C)CC3)cc2)CC1 [1.212, 2-{1-[4-(4-Acetyl-piperazin-1-ylmethyl)phenyl]piperidn-4-yloxy}-1-methyl-1H-[4,4′]bipyrimidinyl-6-one]
20 | 948 nM | CCC1CCCCC1Oc1nc(-c2ccncn2)cc(=O)n1C (centres unmarked) [1.803, 2-(2-Ethyl-cyclohexyloxy)-1-methyl-1H-[4,4′]bipyrimidinyl-6-one]
21 | 245 nM | Cn1c(OC2CCNCC2)nc(-c2ccncc2F)cc1=O [1.204, 6-(3-Fluoro-pyridin-4-yl)-3-methyl-2-(piperidin-4-yloxy)-3H-pyrimidin-4-one]
22 | 9.4 nM | Cn1c(OC2CCN(c3cccc(CN4CCCCC4)c3)CC2)nc(-c2ccncn2)cc1=O [1.223, 1-Methyl-2-[1-(3-piperidin-1-ylmethyl-phenyl)piperidin-4-yloxy]-1H-[4,4′]bipyrimidinyl-6-one]
23 | 16.1 nM | Cn1c(OC2CCN(c3ccc(CN4CCCCC4)cc3)CC2)nc(-c2ccncn2)cc1=O [1.214, 1-Methyl-2-[1-(4-piperidin-1-ylmethyl-phenyl)piperidin-4-yloxy]-1H-[4,4′]bipyrimidinyl-6-one]
24 | 17.9 nM | CN1CCN(c2ccc(N3CCC(Oc4nc(-c5ccncn5)cc(=O)n4C)CC3)cc2)CC1 [1.209, 1-Methyl-2-{1-[4-(4-methyl-piperazin-1-yl)phenyl]piperidin-4-yloxy}-1H-[4,4′]bipyrimidinyl-6-one]
25 | 59.9 nM | Cc1ccccc1N1CCC(Oc2nc(-c3ccncn3)cc(=O)n2C)CC1 [1.206, 1-Methyl-2-(1-o-tolyl-piperidin-4-yloxy)-1H-[4,4′]bipyrimidinyl-6-one]
26 | 32.6 nM | Cn1c(OC2CCN(c3ccc(-c4ccncc4)cc3)CC2)nc(-c2ccncc2F)cc1=O [1.207, 6-(3-Fluoro-pyridin-4-yl)-3-methyl-2-[1-(4-pyridin-4-yl-phenyl)piperidin-4-yloxy]-3H-pyrimidin-4-one]
27 | 25.2 nM | Cn1c(OC2CCN(c3ccccc3CN3Cc4ccccc4C3)CC2)nc(-c2ccncn2)cc1=O [1.304, 2-{1-[2-(1,3-Dihydro-isoindol-2-ylmethyl)phenyl]piperidin-4-yloxy}-1-methyl-1H-[4,4′] bipyrimidinyl-6-one]
28 | 55 nM | Cn1c(OCCSc2ccccc2)nc(-c2ccncc2)cc1=O [1.806, 3-Methyl-2-(2-phenylsulfanyl-ethoxy)-6-pyridin-4-yl-3H-pyrimidin-4-one]
29 | 16 nM | Cn1c(OC2CCN(c3ccc4c(c3)CN(Cc3ccccc3)C4)CC2)nc(-c2ccncn2)cc1=O [1.227, 2-[1-(2-Benzyl-2,3-dihydro-1H-isoindol-5-yl)piperidin-4-yloxy]-1-methyl-1H-[4,4′]bipyrimidinyl-6-one]
30 | 22.6 nM | Cn1c(OC2CCCCC2)nc(-c2ccncn2)cc1=O [1.802, 2-Cyclohexyloxy-1-methyl-1H-[4,4′]bipyrimidinyl-6-one]
31 | 99 nM | Cn1c(OCCNc2ccccc2)nc(-c2ccncc2)cc1=O [1.807, 3-Methyl-2-(2-phenylamino-ethoxy)-6-pyridin-4-yl-3H-pyrimidin-4-one]
32 | 10.9 nM | Cn1c(OC2CCN(c3ccc(CN4CCCCC4)cc3)CC2)nc(-c2ccncc2F)cc1=O [1.216, 6-(3-Fluoro-pyridin-4-yl)-3-methyl-2-[1-(4-piperidin-1-ylmethyl-phenyl)piperidin-4-yloxy]-3H-pyrimidin-4-one]
33 | 370 nM | Cn1c(OCCOc2ccccc2)nc(-c2ccncc2)cc1=O [1.805, 3-Methyl-2-(2-phenoxy-ethoxy)-6-pyridin-4-yl-3H-pyrimidin-4-one]
34 | 955 nM | Cn1c(OC2CCN(Cc3ccccc3)CC2)nc(-c2ccncn2)cc1=O [1.504, 2-(1-Benzyl-piperidin-4-yloxy)-1-methyl-1H-[4,4′]bipyrimidinyl-6-one]
35 | 160 nM | Cn1c(OCCc2ccccc2)nc(-c2ccncn2)cc1=O [2.302, 1-Methyl-2-phenethyloxy-1H-[4,4′]bipyrimidinyl-6-one]
36 | 21.2 nM | CN(C)Cc1ccc(N2CCC(Oc3nc(-c4ccncn4)cc(=O)n3C)CC2)cc1 [1.220, 2-[1-(4-Dimethylaminomethyl-phenyl)piperidin-4-yloxy]-1-methyl-1H-[4,4′]bipyrimidinyl-6-one]
37 | 216 nM | Cn1c(OC2CCN(c3cncnc3)CC2)nc(-c2ccncc2F)cc1=O [1.229, 6-(3-Fluoro-pyridin-4-yl)-3-methyl-2-(1-pyrimidin-5-yl-piperidin-4-yloxy)-3H-pyrimidin-4-one]
38 | 201 nM | Cn1c(OCCCc2cccnc2)nc(-c2ccncn2)cc1=O [1.810, 1-Methyl-2-(3-pyridin-3-yl-propoxy)-1H-[4,4′]bipyrimidinyl-6-one]
